{"source": "ChEMBL document CHEMBL5465560", "about": "“Selectivity Literature for EUbOPEN Chemogenomic Library” (2024)", "key": {"[1]": {"biological_target": "Serine/threonine-protein kinase PAK 6 (Homo sapiens) (UniProt Q9NQU5)", "sequence (Q9NQU5 whole entry, looked up)": "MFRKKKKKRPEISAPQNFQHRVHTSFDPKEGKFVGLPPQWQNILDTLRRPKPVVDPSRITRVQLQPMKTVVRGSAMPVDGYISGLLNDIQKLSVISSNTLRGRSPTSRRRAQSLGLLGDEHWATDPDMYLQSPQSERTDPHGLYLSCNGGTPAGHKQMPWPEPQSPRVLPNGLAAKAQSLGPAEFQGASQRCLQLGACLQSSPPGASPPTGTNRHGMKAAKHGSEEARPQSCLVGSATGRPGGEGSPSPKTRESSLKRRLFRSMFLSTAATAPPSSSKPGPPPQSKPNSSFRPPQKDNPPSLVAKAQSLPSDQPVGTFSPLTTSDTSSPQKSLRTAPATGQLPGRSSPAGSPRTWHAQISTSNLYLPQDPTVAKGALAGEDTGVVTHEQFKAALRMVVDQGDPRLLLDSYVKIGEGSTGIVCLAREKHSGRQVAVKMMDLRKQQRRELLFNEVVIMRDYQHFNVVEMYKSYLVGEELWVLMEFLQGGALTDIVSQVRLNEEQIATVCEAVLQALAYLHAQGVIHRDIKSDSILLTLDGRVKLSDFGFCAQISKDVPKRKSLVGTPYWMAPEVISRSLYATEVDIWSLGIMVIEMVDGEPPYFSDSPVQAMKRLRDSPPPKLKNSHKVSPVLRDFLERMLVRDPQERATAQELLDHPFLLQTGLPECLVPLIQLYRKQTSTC", "experiment": "Selectivity interaction (KinomeScan (DiscoverX)) EUB0000229b PAK6", "conditions": "at 10 µM"}, "[2]": {"biological_target": "MAP kinase-activated protein kinase 2 (Homo sapiens, UniProt P49137)", "experiment": "Selectivity interaction (KinomeScan (DiscoverX)) EUB0000092b MAPKAPK2", "conditions": "at 10 µM"}, "[3]": {"biological_target": "Calcium/calmodulin-dependent protein kinase type II subunit delta (Homo sapiens) (UniProt Q13557)", "sequence (Q13557 whole entry)": "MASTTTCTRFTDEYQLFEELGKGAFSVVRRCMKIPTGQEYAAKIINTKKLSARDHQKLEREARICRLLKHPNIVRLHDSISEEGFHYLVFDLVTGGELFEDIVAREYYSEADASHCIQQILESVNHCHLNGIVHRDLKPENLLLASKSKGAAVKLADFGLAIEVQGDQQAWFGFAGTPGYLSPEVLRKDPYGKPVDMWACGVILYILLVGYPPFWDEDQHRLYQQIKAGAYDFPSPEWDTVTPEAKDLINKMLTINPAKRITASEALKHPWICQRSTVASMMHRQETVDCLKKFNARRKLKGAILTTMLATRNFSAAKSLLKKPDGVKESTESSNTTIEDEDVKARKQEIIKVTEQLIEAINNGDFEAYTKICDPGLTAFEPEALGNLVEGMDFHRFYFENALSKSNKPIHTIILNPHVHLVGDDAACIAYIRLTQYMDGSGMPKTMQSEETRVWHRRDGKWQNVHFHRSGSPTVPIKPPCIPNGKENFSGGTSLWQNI", "experiment": "Selectivity interaction (ProQinase) EUB0000171b CAMK2D"}, "[4]": {"biological_target": "T1, Serine/threonine-protein kinase 17B (Homo sapiens) (UniProt O94768)", "T1 sequence (whole entry)": "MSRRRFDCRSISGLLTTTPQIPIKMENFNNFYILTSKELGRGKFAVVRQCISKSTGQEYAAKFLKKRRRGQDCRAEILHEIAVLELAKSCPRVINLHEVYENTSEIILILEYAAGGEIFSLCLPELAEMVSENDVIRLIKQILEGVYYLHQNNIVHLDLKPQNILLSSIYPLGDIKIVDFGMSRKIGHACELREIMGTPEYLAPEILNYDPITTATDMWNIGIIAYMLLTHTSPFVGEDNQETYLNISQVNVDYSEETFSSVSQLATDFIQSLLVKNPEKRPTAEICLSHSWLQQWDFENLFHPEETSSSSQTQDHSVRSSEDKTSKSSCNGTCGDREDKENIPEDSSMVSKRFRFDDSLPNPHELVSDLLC", "experiment": "Selectivity interaction (KinomeScan (DiscoverX)) EUB0001079a STK17B", "conditions": "at 1 µM"}, "[5]": {"biological_target": "Tyrosine-protein kinase SYK (Homo sapiens, UniProt P43405)", "experiment": "Selectivity interaction (KinomeScan (DiscoverX)) EUB0001079a SYK", "conditions": "at 1 µM"}, "[6]": {"biological_target": "Muscarinic acetylcholine receptor M3 (Homo sapiens, UniProt P20309)", "experiment": "Selectivity interaction (Panel of non-epigenetic targets (kinases, GPCRs, ion channels, and transporters, Eurofins) ) EUB0000271b CHRM3", "conditions": "at 1 µM"}, "[7]": {"biological_target": "T1, Serine/threonine-protein kinase 17B (Homo sapiens)", "experiment": "Selectivity interaction (KinomeScan (DiscoverX)) EUB0000595a STK17B", "conditions": "at 10 µM"}, "[8]": {"biological_target": "T2, Myosin light chain kinase family member 4 (Homo sapiens) (UniProt Q86YV6)", "T2 sequence (whole entry)": "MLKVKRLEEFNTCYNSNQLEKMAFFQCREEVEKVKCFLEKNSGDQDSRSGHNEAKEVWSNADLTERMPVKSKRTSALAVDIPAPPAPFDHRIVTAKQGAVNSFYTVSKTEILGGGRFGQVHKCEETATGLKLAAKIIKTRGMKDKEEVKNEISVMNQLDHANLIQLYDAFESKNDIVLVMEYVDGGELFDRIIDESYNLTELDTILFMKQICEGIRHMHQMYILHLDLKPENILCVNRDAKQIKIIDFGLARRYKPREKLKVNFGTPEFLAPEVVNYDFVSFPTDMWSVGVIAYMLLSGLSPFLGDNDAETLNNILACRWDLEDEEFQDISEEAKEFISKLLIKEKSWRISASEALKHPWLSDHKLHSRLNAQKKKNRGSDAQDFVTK", "experiment": "Selectivity interaction (KinomeScan (DiscoverX)) EUB0000045b MYLK4"}, "[9]": {"biological_target": "Vascular endothelial growth factor receptor 2 (Homo sapiens, UniProt P35968)", "sequence (P35968 whole entry)": "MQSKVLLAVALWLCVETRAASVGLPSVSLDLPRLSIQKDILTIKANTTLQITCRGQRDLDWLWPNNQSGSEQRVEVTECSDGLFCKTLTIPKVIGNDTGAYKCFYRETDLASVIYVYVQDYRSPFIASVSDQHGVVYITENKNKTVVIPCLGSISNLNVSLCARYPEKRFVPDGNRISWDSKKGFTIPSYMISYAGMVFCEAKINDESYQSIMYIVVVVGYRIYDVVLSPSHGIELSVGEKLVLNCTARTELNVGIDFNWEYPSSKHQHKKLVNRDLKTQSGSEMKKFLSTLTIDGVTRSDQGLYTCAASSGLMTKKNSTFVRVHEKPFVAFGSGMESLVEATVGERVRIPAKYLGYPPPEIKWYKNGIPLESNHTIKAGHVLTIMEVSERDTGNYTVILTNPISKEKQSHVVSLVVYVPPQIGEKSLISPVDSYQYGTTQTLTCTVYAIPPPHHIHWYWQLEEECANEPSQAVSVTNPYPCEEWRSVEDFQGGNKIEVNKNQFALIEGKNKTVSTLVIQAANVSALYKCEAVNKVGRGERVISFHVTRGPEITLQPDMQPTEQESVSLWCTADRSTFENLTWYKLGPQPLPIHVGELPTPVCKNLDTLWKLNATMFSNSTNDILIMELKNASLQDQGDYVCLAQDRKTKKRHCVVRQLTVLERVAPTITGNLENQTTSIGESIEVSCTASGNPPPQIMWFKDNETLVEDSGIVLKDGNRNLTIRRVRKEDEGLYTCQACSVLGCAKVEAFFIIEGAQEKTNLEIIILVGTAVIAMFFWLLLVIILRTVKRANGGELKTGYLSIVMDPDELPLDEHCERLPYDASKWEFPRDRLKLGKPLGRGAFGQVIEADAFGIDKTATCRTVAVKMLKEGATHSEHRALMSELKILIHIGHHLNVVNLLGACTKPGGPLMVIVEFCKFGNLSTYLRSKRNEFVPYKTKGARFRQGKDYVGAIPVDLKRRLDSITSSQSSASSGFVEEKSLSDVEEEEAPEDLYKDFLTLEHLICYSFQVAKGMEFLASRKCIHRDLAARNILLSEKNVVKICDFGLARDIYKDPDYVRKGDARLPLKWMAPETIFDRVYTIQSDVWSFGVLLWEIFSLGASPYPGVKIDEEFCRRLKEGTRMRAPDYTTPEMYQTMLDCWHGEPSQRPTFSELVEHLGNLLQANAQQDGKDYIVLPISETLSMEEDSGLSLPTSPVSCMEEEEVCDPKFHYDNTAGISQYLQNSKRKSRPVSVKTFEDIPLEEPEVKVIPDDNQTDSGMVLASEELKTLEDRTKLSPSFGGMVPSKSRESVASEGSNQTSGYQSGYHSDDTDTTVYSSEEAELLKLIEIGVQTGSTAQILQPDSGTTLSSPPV", "experiment": "Selectivity interaction (KinomeScan (DiscoverX)) EUB0000045b KDR"}, "[10]": {"biological_target": "Voltage-dependent L-type calcium channel subunit alpha-1S (Homo sapiens) (UniProt Q13698)", "sequence (Q13698 whole entry)": "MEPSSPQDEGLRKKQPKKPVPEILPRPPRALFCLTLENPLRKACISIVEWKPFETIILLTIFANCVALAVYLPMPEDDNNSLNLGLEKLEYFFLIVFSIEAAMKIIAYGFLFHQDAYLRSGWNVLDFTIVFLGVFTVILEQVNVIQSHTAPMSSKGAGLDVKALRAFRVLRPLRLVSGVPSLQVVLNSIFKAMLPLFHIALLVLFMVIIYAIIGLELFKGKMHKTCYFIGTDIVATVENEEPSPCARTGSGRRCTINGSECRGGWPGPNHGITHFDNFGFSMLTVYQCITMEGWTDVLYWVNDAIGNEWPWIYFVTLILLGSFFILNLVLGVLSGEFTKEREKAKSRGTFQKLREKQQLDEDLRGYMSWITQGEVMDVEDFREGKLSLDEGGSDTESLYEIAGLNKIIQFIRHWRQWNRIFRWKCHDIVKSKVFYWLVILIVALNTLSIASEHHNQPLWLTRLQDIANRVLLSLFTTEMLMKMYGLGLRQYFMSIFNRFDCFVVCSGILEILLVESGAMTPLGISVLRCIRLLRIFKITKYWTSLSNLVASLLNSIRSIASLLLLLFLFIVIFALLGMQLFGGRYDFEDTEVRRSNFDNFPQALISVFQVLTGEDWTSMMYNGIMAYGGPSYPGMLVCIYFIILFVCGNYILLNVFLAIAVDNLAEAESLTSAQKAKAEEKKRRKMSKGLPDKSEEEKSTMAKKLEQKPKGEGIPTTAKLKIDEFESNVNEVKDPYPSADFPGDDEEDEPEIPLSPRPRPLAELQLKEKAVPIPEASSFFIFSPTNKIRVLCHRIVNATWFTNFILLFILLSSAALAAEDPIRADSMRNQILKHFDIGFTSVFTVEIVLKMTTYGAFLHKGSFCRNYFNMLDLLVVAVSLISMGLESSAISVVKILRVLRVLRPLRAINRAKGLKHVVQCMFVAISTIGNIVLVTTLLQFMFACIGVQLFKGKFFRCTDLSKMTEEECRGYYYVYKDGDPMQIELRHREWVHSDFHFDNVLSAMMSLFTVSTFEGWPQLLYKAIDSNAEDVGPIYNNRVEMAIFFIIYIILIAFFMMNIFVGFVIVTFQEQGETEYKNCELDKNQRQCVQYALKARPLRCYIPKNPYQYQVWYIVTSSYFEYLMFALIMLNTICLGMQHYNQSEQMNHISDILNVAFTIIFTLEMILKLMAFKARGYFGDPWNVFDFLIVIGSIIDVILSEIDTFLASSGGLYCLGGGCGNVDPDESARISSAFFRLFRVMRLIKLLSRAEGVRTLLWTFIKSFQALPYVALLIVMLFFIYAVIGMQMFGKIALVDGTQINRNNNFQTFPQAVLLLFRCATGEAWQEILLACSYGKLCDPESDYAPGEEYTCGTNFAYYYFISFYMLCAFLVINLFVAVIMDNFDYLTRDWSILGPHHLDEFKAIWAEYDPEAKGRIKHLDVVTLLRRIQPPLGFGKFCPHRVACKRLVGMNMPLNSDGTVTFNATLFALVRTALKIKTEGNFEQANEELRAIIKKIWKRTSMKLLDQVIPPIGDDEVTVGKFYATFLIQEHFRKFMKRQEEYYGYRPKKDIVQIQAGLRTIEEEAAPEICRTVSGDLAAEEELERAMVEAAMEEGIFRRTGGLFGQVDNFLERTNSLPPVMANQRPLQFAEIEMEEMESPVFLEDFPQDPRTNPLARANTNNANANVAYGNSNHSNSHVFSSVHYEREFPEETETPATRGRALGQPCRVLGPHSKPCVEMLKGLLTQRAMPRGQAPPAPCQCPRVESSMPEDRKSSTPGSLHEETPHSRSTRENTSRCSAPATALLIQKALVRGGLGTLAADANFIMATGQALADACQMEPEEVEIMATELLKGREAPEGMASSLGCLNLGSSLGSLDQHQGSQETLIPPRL", "experiment": "Selectivity interaction (Eurofins CEREP Diversity Profile (receptors and ion channels)) EUB0000279b CACNA1S", "conditions": "at 10 µM"}, "[11]": {"biological_target": "T3, Rhodopsin kinase GRK7 (Homo sapiens) (UniProt Q8WTQ7)", "T3 sequence (whole entry)": "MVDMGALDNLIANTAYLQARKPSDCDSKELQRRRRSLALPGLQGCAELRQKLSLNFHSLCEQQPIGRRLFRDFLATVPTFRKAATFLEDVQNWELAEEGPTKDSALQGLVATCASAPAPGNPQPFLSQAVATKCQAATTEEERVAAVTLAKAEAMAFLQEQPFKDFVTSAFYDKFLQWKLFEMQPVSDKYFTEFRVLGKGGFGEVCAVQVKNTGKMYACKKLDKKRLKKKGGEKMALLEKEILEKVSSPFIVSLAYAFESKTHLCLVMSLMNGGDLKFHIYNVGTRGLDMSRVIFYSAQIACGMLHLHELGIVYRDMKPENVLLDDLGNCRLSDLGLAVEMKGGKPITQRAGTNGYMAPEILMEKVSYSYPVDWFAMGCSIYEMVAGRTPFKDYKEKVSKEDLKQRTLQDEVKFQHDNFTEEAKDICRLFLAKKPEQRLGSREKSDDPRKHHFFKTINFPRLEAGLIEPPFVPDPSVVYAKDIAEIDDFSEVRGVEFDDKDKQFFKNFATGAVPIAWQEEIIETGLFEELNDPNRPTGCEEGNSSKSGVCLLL", "experiment": "Selectivity interaction (Ambit KINOMEscan and KiNATiv profiling in Jurkat cells) EUB0000090b GRK7", "assay_type": "cell-based", "conditions": "at 1 µM"}, "[12]": {"biological_target": "Proto-oncogene tyrosine-protein kinase Src (Homo sapiens, UniProt P12931)", "experiment": "Selectivity interaction (Ambit KINOMEscan and KiNATiv profiling in Jurkat cells) EUB0000090b SRC", "assay_type": "cell-based", "conditions": "at 1 µM"}, "[13]": {"biological_target": "Calcium/calmodulin-dependent protein kinase type II subunit alpha (Homo sapiens, UniProt Q9UQM7)", "sequence (Q9UQM7 whole entry)": "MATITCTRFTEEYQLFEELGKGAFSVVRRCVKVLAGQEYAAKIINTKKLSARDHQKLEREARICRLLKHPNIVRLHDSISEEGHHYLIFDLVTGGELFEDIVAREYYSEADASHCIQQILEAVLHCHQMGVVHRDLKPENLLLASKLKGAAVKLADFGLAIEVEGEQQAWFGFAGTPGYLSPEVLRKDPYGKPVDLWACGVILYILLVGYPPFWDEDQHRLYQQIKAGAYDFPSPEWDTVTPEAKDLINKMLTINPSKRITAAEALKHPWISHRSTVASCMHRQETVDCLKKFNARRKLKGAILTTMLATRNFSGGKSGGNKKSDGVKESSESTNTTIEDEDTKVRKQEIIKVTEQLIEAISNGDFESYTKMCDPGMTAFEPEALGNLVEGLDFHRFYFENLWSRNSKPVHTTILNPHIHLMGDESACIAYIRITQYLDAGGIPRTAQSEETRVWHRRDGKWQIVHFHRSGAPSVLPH", "experiment": "Selectivity interaction (KinomeScan (DiscoverX)) EUB0001619a CAMK2A", "conditions": "at 1 µM"}}}
{"smiles": "COc1cc(N(C)c2ccnc3ccc(C(F)(F)F)cc23)cc(OC)c1OC", "values": [{"measurement": "% binding", "setting": "[1]", "result": 91, "unit": "%"}]}
{"smiles": "CCC(=O)N1CCN(c2ccc(-n3c(=O)ccc4cnc5ccc(-c6cnc7ccccc7c6)cc5c43)cc2C(F)(F)F)CC1", "values": [{"measurement": "% of control", "setting": "[2]", "result": 100, "unit": "%"}]}
{"smiles": "C=CC(=O)Nc1cccc(C(=O)Nc2ccc(Nc3cc(-c4[nH]c(SC)nc4C)ccn3)cc2)c1", "values": [{"measurement": "% of control", "setting": "[3]; at 1 µM", "result": 95, "unit": "%"}, {"measurement": "% of control", "setting": "[3]; at 5 µM", "result": 92, "unit": "%"}]}
{"smiles": "Nc1cnc(N2CCc3cc(S(=O)(=O)Nc4c(F)cc(Cl)cc4F)cc(N4CCCC4=O)c32)nc1", "note": "[TP-020n]", "values": [{"measurement": "% of control", "setting": "[4]", "result": 100, "unit": "%"}, {"measurement": "% of control", "setting": "[5]", "result": 100, "unit": "%"}]}
{"smiles": "Cc1cc(C)cc([C@@H]2c3cc(C)ccc3NC(=O)CN2C(=O)c2ccc(Br)s2)c1", "values": [{"measurement": "% of inhibition", "setting": "[6]", "result": 12, "unit": "%"}]}
{"smiles": "COCC(=O)NC/C=C/c1ccc2ncnc(Nc3ccc(Oc4ccc(C)nc4)c(C)c3)c2c1", "note": "[CP-724714]", "values": [{"measurement": "% of control", "setting": "[7]", "result": 100, "unit": "%"}]}
{"smiles": "C=CC(=O)Nc1cc(-n2c(=O)ccc3cnc4ccc(-c5ccc(NS(C)(=O)=O)cc5)cc4c32)ccc1C", "values": [{"measurement": "% of control", "setting": "[8]; at 1 µM", "result": 96, "unit": "%"}, {"measurement": "% of control", "setting": "[8]; at 10 µM", "result": 97, "unit": "%"}, {"measurement": "% of control", "setting": "[9]; at 1 µM", "result": 97, "unit": "%"}, {"measurement": "% of control", "setting": "[9]; at 10 µM", "result": 100, "unit": "%"}]}
{"smiles": "CC(=O)c1cc(-c2ccccc2OCC2CC2)c2ncccn12", "values": [{"measurement": "% of control", "setting": "[10]", "result": 89, "unit": "%"}]}
{"smiles": "CN(C)C/C=C/C(=O)Nc1ccc(C(=O)N2CCCC(Nc3ncc(Cl)c(-c4c[nH]c5ccccc45)n3)C2)cc1", "note": "(stereo unspecified)", "values": [{"measurement": "% of control", "setting": "[11]", "result": 70, "unit": "%"}, {"measurement": "% of control", "setting": "[12]", "result": 90, "unit": "%"}]}
{"smiles": "N#Cc1cccc(-c2c[nH]c3ncnc(N4CCOCC4)c23)c1", "values": [{"measurement": "% of control", "setting": "[13]", "result": 79, "unit": "%"}]}
